Data as given in paper PMC4714714 (Journal of medicinal chemistry, 2015).
Read-outs that look alike come from different tables or passages of the source.

Assays:
DHFR = biological target: T1, DHFR (Homo sapiens, UniProt P00374); experiment: Isolated enzyme assay DHFR; format: biochemical; conditions: nucleoside protection and isolated enzyme assays (not shown)
T1 sequence (P00374 1-187): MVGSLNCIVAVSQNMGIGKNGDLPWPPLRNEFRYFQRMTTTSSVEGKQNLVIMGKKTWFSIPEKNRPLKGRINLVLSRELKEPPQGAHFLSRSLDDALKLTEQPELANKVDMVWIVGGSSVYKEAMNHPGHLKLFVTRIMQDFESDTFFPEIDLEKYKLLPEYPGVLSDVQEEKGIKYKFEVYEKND

TS = TS (Homo sapiens, UniProt P04818); experiment: Isolated enzyme assay TS; format: biochemical; conditions: nucleoside protection and isolated enzyme assays (not shown)
[1] = tested on: KB human nasopharyngeal carcinoma cells (FRα/PCFT/RFC); experiment: Growth inhibition of KB human tumor cells; format: cell-based
[2] = tested on: SKOV3 human ovarian tumor xenografts; experiment: In vivo efficacy trial against SKOV3 xenografts in SCID mice; conditions: folate-deficient diet; 4 28 mg/kg, 7 16 mg/kg i.v. Q4dx3
FRα = FRα (Homo sapiens, UniProt P15328); experiment: [3H]folic acid competition binding to FRα on RT16 CHO cells
FRβ = FRβ (Homo sapiens, UniProt P14207); experiment: [3H]folic acid competition binding to FRβ on D4 CHO cells
PCFT = biological target: T2, PCFT (Homo sapiens, UniProt Q96NT5); experiment: PCFT uptake and transport kinetics in R2/PCFT4 CHO cells; format: cell-based
T2 sequence (Q96NT5 1-459): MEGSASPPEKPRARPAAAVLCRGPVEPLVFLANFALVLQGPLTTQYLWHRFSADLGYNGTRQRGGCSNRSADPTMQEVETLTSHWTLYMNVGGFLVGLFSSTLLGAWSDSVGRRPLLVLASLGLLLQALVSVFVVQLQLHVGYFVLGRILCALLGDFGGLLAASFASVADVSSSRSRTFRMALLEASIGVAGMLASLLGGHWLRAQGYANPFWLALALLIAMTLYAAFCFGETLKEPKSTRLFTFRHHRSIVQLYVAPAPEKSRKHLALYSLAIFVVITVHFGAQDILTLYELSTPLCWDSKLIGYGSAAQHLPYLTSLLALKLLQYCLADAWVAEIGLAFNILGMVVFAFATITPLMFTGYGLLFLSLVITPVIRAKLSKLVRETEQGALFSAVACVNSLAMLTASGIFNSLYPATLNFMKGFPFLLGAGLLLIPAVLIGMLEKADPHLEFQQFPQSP

[3] = biological target: T3, recombinant human GARFTase (Homo sapiens, UniProt P22102); experiment: In vitro GARFTase inhibition assay; format: biochemical; conditions: from Ki values
T3 sequence (P22102 810-1010 limits assumed): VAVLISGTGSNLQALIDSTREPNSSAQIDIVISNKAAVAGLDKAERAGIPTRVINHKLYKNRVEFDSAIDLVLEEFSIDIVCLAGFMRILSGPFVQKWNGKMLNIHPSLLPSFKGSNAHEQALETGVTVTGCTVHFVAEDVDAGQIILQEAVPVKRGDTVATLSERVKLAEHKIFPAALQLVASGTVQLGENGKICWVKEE

[4] = read-out: IC50 for inhibition of proliferation, KB

Chain of TS (P04818 whole entry): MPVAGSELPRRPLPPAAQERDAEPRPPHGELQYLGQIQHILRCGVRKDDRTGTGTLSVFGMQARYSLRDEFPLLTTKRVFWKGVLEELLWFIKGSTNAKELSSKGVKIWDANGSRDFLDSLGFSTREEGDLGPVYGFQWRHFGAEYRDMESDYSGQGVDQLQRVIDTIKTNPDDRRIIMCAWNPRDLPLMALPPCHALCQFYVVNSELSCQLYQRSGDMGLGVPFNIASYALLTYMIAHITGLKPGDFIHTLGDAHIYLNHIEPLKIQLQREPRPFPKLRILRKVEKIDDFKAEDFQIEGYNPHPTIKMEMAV
Chain of FRα (P15328 25-257): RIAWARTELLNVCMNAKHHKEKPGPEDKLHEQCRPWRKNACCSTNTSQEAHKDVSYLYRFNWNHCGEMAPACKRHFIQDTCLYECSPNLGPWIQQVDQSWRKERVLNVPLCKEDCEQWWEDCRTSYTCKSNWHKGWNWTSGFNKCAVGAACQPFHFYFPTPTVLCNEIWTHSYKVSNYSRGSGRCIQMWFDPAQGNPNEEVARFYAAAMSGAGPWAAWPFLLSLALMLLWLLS
Chain of FRβ (P14207 17-255): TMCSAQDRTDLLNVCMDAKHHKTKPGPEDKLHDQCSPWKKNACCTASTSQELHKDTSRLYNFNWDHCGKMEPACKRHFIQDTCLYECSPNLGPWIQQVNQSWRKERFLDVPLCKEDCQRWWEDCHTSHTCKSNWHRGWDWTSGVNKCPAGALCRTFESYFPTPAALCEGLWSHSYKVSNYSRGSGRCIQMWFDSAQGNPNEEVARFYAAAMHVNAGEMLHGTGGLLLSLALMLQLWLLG

| Structure (SMILES) | inhibition of DHFR (DHFR) | inhibition of TS (TS) | IC50 [1, 4] | tumor growth delay (T–C value) [2] | also measured |
| --- | --- | --- | --- | --- | --- |
| Nc1nc(N)c2c(CCCc3cc(C(=O)N[C@@H](CCC(=O)O)C(=O)O)cs3)coc2n1 [compound 8, (S)-2-({5-[3-(2,4-Diamino-furo[2,3-d]pyrimidin-5-yl)-propyl]-thiophene-3-carbonyl}-amino)-pentanedioic Acid] | Neither 6 nor 8 were potent inhibitors of DHFR or TS | Neither 6 nor 8 were potent inhibitors of DHFR or TS |  |  |  |
| C#CCC(Cc1cnc2nc(N)nc(N)c2n1)c1ccc(C(=O)N[C@@H](CCC(=O)O)C(=O)O)cc1 (stereo partly drawn) [PDX, N-(4-{1-[(2,4-diaminopteridin-6-yl)methyl]but-3-yn-1-yl}-benzoyl)-L-glutamic acid] |  |  | 0.47 nM |  | IC50 ([1]; read-out: IC50 for inhibition of proliferation, KB (+FA)): 1.94 nM |
| Nc1nc2[nH]c(CCCc3ccc(C(=O)N[C@@H](CCC(=O)O)C(=O)O)s3)cc2c(=O)[nH]1 [compound 4] |  |  | 0.26 nM | 13 days |  |
| Nc1nc(N)c2c(CCCc3csc(C(=O)N[C@@H](CCC(=O)O)C(=O)O)c3)coc2n1 [compound 6, (S)-2-({4-[3-(2,4-Diamino-furo[2,3-d]pyrimidin-5-yl)-propyl]-thiophene-2 carbonyl}-amino)-pentanedioic Acid] | Neither 6 nor 8 were potent inhibitors of DHFR or TS | Neither 6 nor 8 were potent inhibitors of DHFR or TS |  |  |  |
| Nc1nc2[nH]c(CCCc3cc(C(=O)N[C@@H](CCC(=O)O)C(=O)O)cs3)cc2c(=O)[nH]1 [compound 7, (S)-2-({5-[3-(2-Amino-4-oxo-4,7-dihydro-3H-pyrrolo[2,3-d]-pyrimidin-6-yl)-propyl]-thiophene-3-carbonyl}-amino)-pentanedioic Acid] |  |  |  | 13 days | relative binding affinity to FRα, % of that for folic acid (FRα): approximately 60 % of that for folic acid; relative binding affinity to FRβ, % of the affinity for folic acid (FRβ): 35–40 % of the affinity for folic acid; PCFT uptake of [3H]7 in excess of that for [3H]PMX (PCFT; 0.5 μM, pH 5.5, 37 °C): ~ 40%; Vmax, PCFT transport, pH 5.5 (PCFT; pH 5.5): 24.62 (±6.60) pmol/mg/min; Vmax, PCFT transport, pH 6.8 (PCFT; pH 6.8): 3.0 (±0.3) pmol/mg/min; fold more potent as inhibitor of human GARFTase than 4 [3]: ~ 7 fold; fold more potent as inhibitor of human GARFTase than PMX [3]: > 100 fold |
